Reference: ChEMBL document CHEMBL1201862, “PubChem BioAssay data set” (2004)
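Values below derive from 48-hour exposures of cells grown in 96-well plates, with endpoints linearly interpolated between the two concentrations bracketing the appropriate inhibition level. Here, GI50 denotes the concentration required for 50% inhibition of growth.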 Calls of active or inactive are those of the source. No stated cut-off is given here; in the data, active = GI50 up to about 1.1 µM and inactive = higher.

Key:
Experiment in all cases: DTP human tumour cell line panel, 48 h
[1] = tested on: SK-MEL-5
[2] = tested on: MDA-MB-435
[3] = tested on: KM12
[4] = tested on: PC-3
[5] = tested on: SNB-19
[6] = tested on: SW-620
[7] = tested on: 786-0
[8] = tested on: MDA-MB-231
[9] = tested on: Hs-578T
[10] = tested on: CAKI-1
[11] = tested on: Malme-3M
[12] = tested on: SN12C
[13] = tested on: HT-29
[14] = tested on: NCI-H522
[15] = tested on: SR
[16] = tested on: A498
[17] = tested on: SF-295
[18] = tested on: U-251
[19] = tested on: HOP-62
[20] = tested on: OVCAR-5
[21] = tested on: EKVX
[22] = tested on: OVCAR-4
[23] = tested on: NCI-H23
[24] = tested on: SK-OV-3
[25] = tested on: HCC 2998
[26] = tested on: SF-539
[27] = tested on: K562
[28] = tested on: DU-145
[29] = tested on: LOX IMVI
[30] = tested on: SF-268
[31] = tested on: SNB-75
[32] = tested on: RPMI-8226
[33] = tested on: M14
[34] = tested on: HCT-116
[35] = tested on: UACC-62
[36] = tested on: ACHN
[37] = tested on: UACC-257
[38] = tested on: A549
[39] = tested on: NCI/ADR-RES
[40] = tested on: BT-549
[41] = tested on: TK-10
[42] = tested on: NCI-H226
[43] = tested on: SK-MEL-2
[44] = tested on: COLO 205
[45] = tested on: OVCAR-8
[46] = tested on: RXF 393
[47] = tested on: HOP-92
[48] = tested on: IGROV-1
[49] = tested on: NCI-H460
[50] = tested on: MCF7
[51] = tested on: OVCAR-3
[52] = tested on: MDA-N
[53] = tested on: HCT-15
[54] = tested on: UO-31
[55] = tested on: SK-MEL-28
[56] = tested on: HL-60
[57] = tested on: MOLT-4
[58] = tested on: CCRF-CEM

CNC/C(Cl)=N/S(=O)(=O)c1ccc(C)cc1
GI50 [1]: 15 µM (inactive)
GI50 [2]: 6.15 µM (inactive)
GI50 [3]: 13.8 µM (inactive)
GI50 [4]: 9.59 µM (inactive)
GI50 [5]: 20.4 µM (inactive)
GI50 [6]: 9.16 µM (inactive)
GI50 [7]: 9.93 µM (inactive)
GI50 [8]: 13.7 µM (inactive)
GI50 [9]: 28.8 µM (inactive)
GI50 [10]: 13.2 µM (inactive)
GI50 [11]: 9.66 µM (inactive)
GI50 [12]: 9.75 µM (inactive)
GI50 [13]: 19.2 µM (inactive)
GI50 [14]: 6.58 µM (inactive)
GI50 [15]: 3.84 µM (inactive)
GI50 [16]: 20 µM (inactive)
GI50 [17]: 14.7 µM (inactive)
GI50 [18]: 6.93 µM (inactive)
GI50 [19]: 14 µM (inactive)
GI50 [20]: 21 µM (inactive)
GI50 [21]: 15.6 µM (inactive)
GI50 [22]: 10 µM (inactive)
GI50 [23]: 7.83 µM (inactive)
GI50 [24]: 22.8 µM (inactive)
GI50 [25]: 4.74 µM (inactive)
GI50 [26]: 9.71 µM (inactive)
GI50 [27]: 36.1 µM (inactive)
GI50 [28]: 5.07 µM (inactive)
GI50 [29]: 7.16 µM (inactive)
GI50 [30]: 19.5 µM (inactive)
GI50 [31]: 5.18 µM (inactive)
GI50 [32]: 6.61 µM (inactive)
GI50 [33]: 10.3 µM (inactive)
GI50 [34]: 8.09 µM (inactive)
GI50 [35]: 9.64 µM (inactive)
GI50 [36]: 15.8 µM (inactive)
GI50 [37]: 9.27 µM (inactive)
GI50 [38]: 13.2 µM (inactive)
GI50 [39]: 26.1 µM (inactive)
GI50 [40]: 16.3 µM (inactive)
GI50 [41]: 12.7 µM (inactive)
GI50 [42]: 19.5 µM (inactive)
GI50 [43]: 15 µM (inactive)
GI50 [44]: 17.5 µM (inactive)
GI50 [45]: 18.9 µM (inactive)
GI50 [46]: 2.2 µM (inactive)
GI50 [47]: 14.8 µM (inactive)
GI50 [48]: 17.2 µM (inactive)
GI50 [49]: 8.17 µM (inactive)
GI50 [50]: 7.94 µM (inactive)
GI50 [51]: 12.4 µM (inactive)
GI50 [52]: 6.85 µM (inactive)
GI50 [53]: 16.1 µM
GI50 [54]: 12.1 µM (inactive)
GI50 [55]: 31.6 µM (inactive)

COc1ccc(C(CC(=O)C(C)(C)CN2CCCCC2)SCCS(=O)(=O)O)cc1 (stereo not given)
GI50 [1]: 20.9 µM (inactive)
GI50 [2]: 18.3 µM (inactive)
GI50 [3]: 30.4 µM (inactive)
GI50 [4]: 53.7 µM (inactive)
GI50 [5]: 83.9 µM (inactive)
GI50 [6]: 32.6 µM (inactive)
GI50 [7]: 18.3 µM (inactive)
GI50 [8]: 27.5 µM (inactive)
GI50 [9]: 55.3 µM (inactive)
GI50 [10]: 34.9 µM (inactive)
GI50 [11]: 20.9 µM (inactive)
GI50 [12]: 54.2 µM (inactive)
GI50 [13]: 26.2 µM (inactive)
GI50 [14]: 21.5 µM (inactive)
GI50 [15]: 14.3 µM (inactive)
GI50 [56]: 41.4 µM (inactive)
GI50 [16]: 26.2 µM (inactive)
GI50 [17]: 13.9 µM (inactive)
GI50 [18]: 62.1 µM (inactive)
GI50 [19]: 77.8 µM (inactive)
GI50 [20]: 21.3 µM (inactive)
GI50 [57]: 22.1 µM (inactive)
GI50 [21]: 30.4 µM (inactive)
GI50 [22]: 34 µM (inactive)
GI50 [23]: 25.1 µM (inactive)
GI50 [24]: 60.7 µM (inactive)
GI50 [25]: 67.3 µM (inactive)
GI50 [26]: 19.9 µM (inactive)
GI50 [27]: 22.9 µM (inactive)
GI50 [58]: 17.1 µM (inactive)
GI50 [28]: 66.1 µM (inactive)
GI50 [31]: 22.3 µM (inactive)
GI50 [32]: 24.9 µM (inactive)
GI50 [33]: 18.7 µM (inactive)
GI50 [34]: 29 µM (inactive)
GI50 [35]: 37.3 µM (inactive)
GI50 [36]: 33.2 µM (inactive)
GI50 [37]: 34.4 µM (inactive)
GI50 [38]: 41.4 µM (inactive)
GI50 [39]: 35.4 µM (inactive)
GI50 [40]: 45.7 µM (inactive)
GI50 [41]: 45.7 µM (inactive)
GI50 [42]: 21.9 µM (inactive)
GI50 [43]: > 100 µM (inactive)
GI50 [44]: 28.4 µM (inactive)
GI50 [45]: 33.3 µM (inactive)
GI50 [46]: 40.4 µM (inactive)
GI50 [47]: 17.8 µM (inactive)
GI50 [48]: 53.2 µM (inactive)
GI50 [49]: 22.6 µM (inactive)
GI50 [50]: 28.7 µM (inactive)
GI50 [51]: 12.8 µM (inactive)
GI50 [52]: 29.6 µM (inactive)
GI50 [53]: 34.2 µM
GI50 [54]: 37.4 µM (inactive)
